US8334403B1, “C-lysine conjugates as pH-controlled, light-activated reagents for double stranded DNA cleavage and associated methods” (Florida State University Research Foundation, Inc., priority 2005, dated 2012)
Several values for one entry are separate records, joined by “and”; a condition that tells them apart may be missing. Equal entries are not always repeated.

Columns and labels:
UMRC3 cells = assay: RCC cell proliferation assay, UMRC3; format: cell-based; conditions: Homo sapiens, UMRC3, UV 350 nm 10 minutes, 72 hours
Description: (§1) FIG. 23 provides the results of cell proliferation assays using three different RCC cell lines: (a) UMRC3, (b) UMRC6 and (c) 786-O, and compounds I-5; RCC cells were resuspended in media and treated with UV radiation (350 nm) for 10 minutes with and without indicated compounds; control cells were exposed to the indicated compound 1-5 at final concentration of 10 μM; cell numbers determined after 72 hours as described in the SI Section;
(§2) The ability of compounds 1-5 to inhibit cell proliferation in three human clear cell renal cell carcinoma (RCC) cell lines was tested in the dark and under photoactivation (FIG. 23). No difference was detected in the control experiments between cells not exposed to UV versus those that were exposed to UV at 350 nm for 10 minutes in any of the three RCC cell lines tested (FIG. 23 A, B & C; first two columns).

[1] = Fluorometric (emission) determination of pKa; format: physicochemical
Description: (§3) General information. ^1H, ^13C and ^19F NMR were collected on a Varian Gemini 300 MHz NMR spectrometer and a Bruker 300 MHz NMR spectrometer. Mass spectrometry data was collected on a Jeol JMS-600H. UV spectra were recorded on a Shimadzu UV-2100. Fluorescence spectra were obtained with SPEX FluoMax spectrofluorimeter using right-angle geometry. pH was adjusted with AB 15 plus pH meter (Accument) after standardization at 25° C. All buffers were prepared and pH-adjusted at room temperature (25° C.). Plasmid DNA Photocleavage. pBR322 plasmid DNA (4,361 b/p; from BioLabs Inc., 1 μg/μL solution in 10 mM Tris-HCl (pH 8.0), and 1 mM EDTA buffer) was diluted to a concentration of 0.01 μg/μL. The solution containing cleavage agent, DNA (30 μM/bp) in 20 mM sodium phosphate buffer was incubated for 1 hour at 30° C. Samples were placed on ice at a distance of 20 cm from 200 W Hg—Xe lamp (Spectra-Physics, Laser & Photonics Oriel Instruments with long pass filter with 324 nm cut-off wavelength). Electrophoretic Analysis. The gel electrophoresis was carried out in 1×TBE buffer at 80 V using Miligel FisherBiotech Horizontal Electrophoresis System. All gels were run on 1% agarose slab gels. Before loading, the DNA samples were mixed with 0.33 volume of tracking dye containing bromophenol blue (0.25%) and glycerol (30%) in water. After staining in ethidium bromide solution (2 μg/ml) for 1 hour, the gel was washed with water and pictures were taken with Polaroid 3000ISO type 667 film. The relative quantities of the supercoiled, nicked, and linear DNA were calculated by integrating the “area” of each spot by the image analyzer software Total/Lab (Nonlinear Dynamics Ltd., UK). The amount of supercoiled DNA was multiplied by factor of 1.4 to account for reduced ethidium bromide intercalation into supercoiled DNA. pH titration by ^1H-NMR. pH* of compound 8 (3 mM) solution in D2O containing 0.05 wt % 3-(trimethylsilyl)propionic-2,2,3,3-d4 acid, sodium salt (TSP-d4) was adjusted with 10 wt % DCI and NaOD in D2O at 25° C. under argon purged condition. Spectrometric determinations of pKa. pH of 10 μM of compound solution in H2O was adjusted with 10, 100 mM HCl (aq) and NaOH (aq) solution under argon purged condition. Excitation wavelength was 330 nm and polymethacrylate fluorimeter cuvettes were used. Absorbance and fluorescence titration with DNA. The concentrations of calf thymus DNA stock solution was determined spectophotometrically using the following molar absorptovity values: 1.32×10^4 M^−1 cm^−1 (per base pair) at 260 nm. All experiments were done in 20 mM sodium phosphate buffer at 25° C. and polymethacrylate fluorimeter cuvettes were used. The same amount of DNA was added to both sample and reference cuvettes during UV/Vis titration. Determination of excited state lifetimes. The concentration of compound solution was 10 μM in 20 mM sodium phosphate buffer. The photoluminescence lifetime measurements were conducted by exciting the samples with the output of a Nd:VO—4 (Spectra-Physics Vanguard, 2 W, 532 nm, 76 MHz, 10 ps) pumped R6G dye laser (Coherent 702-1). The output of the dye laser (600 nm, Rhodamine 6G) was cavity dumped at 1.9 MHz and frequency doubled using a BBO crystal to excite the fluorophore (the excitation wavelength used was 290 nm). Samples were excited with <1 mW power and the emission was collected at right angles onto a Chromex S3 500 is 0.5 m imaging monochromator with a 50 g/mm grating and 0.5 nm resolution. […]

calf thymus (CT) DNA = assay: UV-Vis absorbance titration with DNA; format: binding; conditions: 20 mM phosphate buffer
Description: General information. ^1H, ^13C and ^19F NMR were collected on a Varian Gemini 300 MHz NMR spectrometer and a Bruker 300 MHz NMR spectrometer. Mass spectrometry data was collected on a Jeol JMS-600H. UV spectra were recorded on a Shimadzu UV-2100. Fluorescence spectra were obtained with SPEX FluoMax spectrofluorimeter using right-angle geometry. pH was adjusted with AB 15 plus pH meter (Accument) after standardization at 25° C. All buffers were prepared and pH-adjusted at room temperature (25° C.). Plasmid DNA Photocleavage. pBR322 plasmid DNA (4,361 b/p; from BioLabs Inc., 1 μg/μL solution in 10 mM Tris-HCl (pH 8.0), and 1 mM EDTA buffer) was diluted to a concentration of 0.01 μg/μL. The solution containing cleavage agent, DNA (30 μM/bp) in 20 mM sodium phosphate buffer was incubated for 1 hour at 30° C. Samples were placed on ice at a distance of 20 cm from 200 W Hg—Xe lamp (Spectra-Physics, Laser & Photonics Oriel Instruments with long pass filter with 324 nm cut-off wavelength). Electrophoretic Analysis. The gel electrophoresis was carried out in 1×TBE buffer at 80 V using Miligel FisherBiotech Horizontal Electrophoresis System. All gels were run on 1% agarose slab gels. Before loading, the DNA samples were mixed with 0.33 volume of tracking dye containing bromophenol blue (0.25%) and glycerol (30%) in water. After staining in ethidium bromide solution (2 μg/ml) for 1 hour, the gel was washed with water and pictures were taken with Polaroid 3000ISO type 667 film. The relative quantities of the supercoiled, nicked, and linear DNA were calculated by integrating the “area” of each spot by the image analyzer software Total/Lab (Nonlinear Dynamics Ltd., UK). […] Absorbance and fluorescence titration with DNA. The concentrations of calf thymus DNA stock solution was determined spectophotometrically using the following molar absorptovity values: 1.32×10^4 M^−1 cm^−1 (per base pair) at 260 nm. […]

CT DNA = assay: Ethidium bromide displacement assay; format: binding, calf; conditions: 10 μM ethidium bromide, 10 μM CT DNA
Description: General information. ^1H, ^13C and ^19F NMR were collected on a Varian Gemini 300 MHz NMR spectrometer and a Bruker 300 MHz NMR spectrometer. Mass spectrometry data was collected on a Jeol JMS-600H. UV spectra were recorded on a Shimadzu UV-2100. Fluorescence spectra were obtained with SPEX FluoMax spectrofluorimeter using right-angle geometry. pH was adjusted with AB 15 plus pH meter (Accument) after standardization at 25° C. All buffers were prepared and pH-adjusted at room temperature (25° C.). Plasmid DNA Photocleavage. pBR322 plasmid DNA (4,361 b/p; from BioLabs Inc., 1 μg/μL solution in 10 mM Tris-HCl (pH 8.0), and 1 mM EDTA buffer) was diluted to a concentration of 0.01 μg/μL. The solution containing cleavage agent, DNA (30 μM/bp) in 20 mM sodium phosphate buffer was incubated for 1 hour at 30° C. […] The relative quantities of the supercoiled, nicked, and linear DNA were calculated by integrating the “area” of each spot by the image analyzer software Total/Lab (Nonlinear Dynamics Ltd., UK). […] Absorbance and fluorescence titration with DNA. The concentrations of calf thymus DNA stock solution was determined spectophotometrically using the following molar absorptovity values: 1.32×10^4 M^−1 cm^−1 (per base pair) at 260 nm. […]

UMRC6 cells = assay: RCC cell proliferation assay, UMRC6; format: cell-based; conditions: Homo sapiens, UMRC6, UV 350 nm 10 minutes, 72 hours
Description: as §1, §2

[2] = UV-absorption titration determination of pKa; format: physicochemical; conditions: absorption
Description: as §3

pBR322 plasmid DNA = assay: Plasmid relaxation assay: DNA photocleavage of supercoiled plasmid under UV irradiation; format: biochemical
Description: General information. ^1H, ^13C and ^19F NMR were collected on a Varian Gemini 300 MHz NMR spectrometer and a Bruker 300 MHz NMR spectrometer. Mass spectrometry data was collected on a Jeol JMS-600H. UV spectra were recorded on a Shimadzu UV-2100. Fluorescence spectra were obtained with SPEX FluoMax spectrofluorimeter using right-angle geometry. pH was adjusted with AB 15 plus pH meter (Accument) after standardization at 25° C. All buffers were prepared and pH-adjusted at room temperature (25° C.). Plasmid DNA Photocleavage. pBR322 plasmid DNA (4,361 b/p; from BioLabs Inc., 1 μg/μL solution in 10 mM Tris-HCl (pH 8.0), and 1 mM EDTA buffer) was diluted to a concentration of 0.01 μg/μL. The solution containing cleavage agent, DNA (30 μM/bp) in 20 mM sodium phosphate buffer was incubated for 1 hour at 30° C. Samples were placed on ice at a distance of 20 cm from 200 W Hg—Xe lamp (Spectra-Physics, Laser & Photonics Oriel Instruments with long pass filter with 324 nm cut-off wavelength). Electrophoretic Analysis. The gel electrophoresis was carried out in 1×TBE buffer at 80 V using Miligel FisherBiotech Horizontal Electrophoresis System. All gels were run on 1% agarose slab gels. Before loading, the DNA samples were mixed with 0.33 volume of tracking dye containing bromophenol blue (0.25%) and glycerol (30%) in water. After staining in ethidium bromide solution (2 μg/ml) for 1 hour, the gel was washed with water and pictures were taken with Polaroid 3000ISO type 667 film. The relative quantities of the supercoiled, nicked, and linear DNA were calculated by integrating the “area” of each spot by the image analyzer software Total/Lab (Nonlinear Dynamics Ltd., UK). The amount of supercoiled DNA was multiplied by factor of 1.4 to account for reduced ethidium bromide intercalation into supercoiled DNA. pH titration by ^1H-NMR. pH* of compound 8 (3 mM) solution in D2O containing 0.05 wt % 3-(trimethylsilyl)propionic-2,2,3,3-d4 acid, sodium salt (TSP-d4) was adjusted with 10 wt % DCI and NaOD in D2O at 25° C. under argon purged condition. Spectrometric determinations of pKa. pH of 10 μM of compound solution in H2O was adjusted with 10, 100 mM HCl (aq) and NaOH (aq) solution under argon purged condition. Excitation wavelength was 330 nm and polymethacrylate fluorimeter cuvettes were used. Absorbance and fluorescence titration with DNA. The concentrations of calf thymus DNA stock solution was determined spectophotometrically using the following molar absorptovity values: 1.32×10^4 M^−1 cm^−1 (per base pair) at 260 nm. All experiments were done in 20 mM sodium phosphate buffer at 25° C. and polymethacrylate fluorimeter cuvettes were used. The same amount of DNA was added to both sample and reference cuvettes during UV/Vis titration. Determination of excited state lifetimes. The concentration of compound solution was 10 μM in 20 mM sodium phosphate buffer. The photoluminescence lifetime measurements were conducted by exciting the samples with the output of a Nd:VO—4 (Spectra-Physics Vanguard, 2 W, 532 nm, 76 MHz, 10 ps) pumped R6G dye laser (Coherent 702-1). The output of the dye laser (600 nm, Rhodamine 6G) was cavity dumped at 1.9 MHz and frequency doubled using a BBO crystal to excite the fluorophore (the excitation wavelength used was 290 nm). Samples were excited with <1 mW power and the emission was collected at right angles onto a Chromex S3 500 is 0.5 m imaging monochromator with a 50 g/mm grating and 0.5 nm resolution. Output of the monochromator is focused into a Hamamatsu C5680 streak camera operating at a 20 ns window for the fluorophore. Intensity analysis was carried out by integrating the spectral profile in time on the streak camera. Lifetime analysis over 6-7 lifetimes of the fluorophore was conducted by binning the photoluminescence intensity collected on the streak camera over a 20 nm spectral window at the centroid value of the emission of the fluorophore. Ethidium bromide displacement. […]

Cl.Cl.NCCCC[C@H](N)C(=O)Nc1ccc(C#Cc2c(F)c(F)nc(F)c2F)cc1 [Compound 4, (S)-2,6-Diamino-hexanoic acid [4-(2,3,5,6-tetrafluoro-pyridin-4-ylethynyl)-phenyl]-amide dihydrochloride]
mortality at 10 µM (UMRC3 cells): 94%
α-pKa lower than the pKa for alanine conjugate 6 ([1]; difference to compound 6): ~0.5 units
decrease in the basicity of the α-amino group relative to phenyl conjugate 8 ([1]; difference to compound 8): 0.5-0.6 pKa units
pKa1 ([1]; emission, α-amino group (4, 6), ε-amino group (7), dihydrochloride): 7.0 and 6.98
hypochromicity on titration with DNA (calf thymus (CT) DNA; pH 5.5, 10 μM): 20%
hypochromicity on titration with DNA (calf thymus (CT) DNA; pH 7, 10 μM): 14%
hypochromicity on titration with DNA (calf thymus (CT) DNA; pH 8, 10 μM): 12%
displacement of intercalated ethidium bromide from its complex with DNA (CT DNA): does not lead to the displacement
mortality at 10 µM (UMRC6 cells): 90%
pKa1 ([2]; α-amino group (4, 6), ε-amino group (7)): 6.9
pKa2 ([2]; ε-amino group): -/9.5
ds cleavage (pBR322 plasmid DNA; higher concentrations of 4): ≤ 50%
decrease of total DNA cleavage activity on increasing phosphate buffer from 10 mM to 50 mM (pBR322 plasmid DNA; pH 5.5, 10 μM): 48%
